Here are results for 29 molecules from ChEMBL document CHEMBL4811216, “Chemotherapy for human schistosomiasis: how far have we come? What's new? Where do we go from here?” (RSC Med Chem, 2020).

Data set [1] has as its system Schistosoma mansoni. The data set can be described thus: Antischistosomal activity against Schistosoma mansoni Puerto-Rican assessed as worm mortality incubated for 5 days by stereomicroscopic method. To be noted: 120 h; for IC90: time 5 day. Type of data set: functional, organism-based.
Data set [2] deals with Schistosoma mansoni. Description: Antischistosomal activity against Schistosoma mansoni Egyptian assessed as worm mortality incubated for 5 days by stereomicroscopic method. In kind it is functional, organism-based. To be noted: 120 h; for IC90: time 5 day.
Data set [3] concerns Schistosoma mansoni. Description: Antischistosomal activity against Schistosoma mansoni assessed as worm mortality at 5 ug/ml incubated for 5 days by stereomicroscopic method relative to control. In kind it is functional. To be noted: 120 h, time 5 day.
Data set [4] has as its system Schistosoma mansoni. Description: Antischistosomal activity against Schistosoma mansoni Liberian infected in NMRI mouse assessed as worm burden reduction at 200 mg/kg, po measured after 14 days relative to control. To be noted: time 14 day. Further details: scale not given: the % may be the effect or the level left. In kind it is functional.
Data set [5] can be described thus: Cytotoxicity against Biomphalaria alexandrina incubated for 24 hrs relative to control. Further details: concentration or dose not given beside the values.
Data set [6] in a line: Cytotoxicity against Biomphalaria alexandrina incubated for 24 hrs.
The subject of data set [7] is Schistosoma mansoni. The data set can be described thus: Antischistosomal activity against adult Schistosoma mansoni LE assessed as reduction in motor activity at 50 uM measured after 24 hrs by inverted microscopy relative to control. Type of data set: functional. Further details: scale not given: the % may be the effect or the level left.
The subject of data set [8] is Schistosoma mansoni. Description: microbe, parasite or virus in culture. To be noted: Liberian, 72 h.
Description: Antischistosomal activity against Schistosoma mansoni Liberian NTS incubated for 72 hrs by microscopic method
The subject of the next data set is Schistosoma haematobium. Description: Antischistosomal activity against Schistosoma haematobium at 10 uM measured after 72 hrs relative to control. In kind it is functional.
In data set [9] the test system is Schistosoma mansoni. The data set can be described thus: microbe, parasite or virus in culture. As to conditions: 72 h.
Description: Antischistosomal activity against Schistosoma mansoni incubated for 72 hrs by inverted microscopic method
For data set [10], the system named is Schistosoma mansoni. Description: Antischistosomal activity against Schistosoma mansoni infected in NMRI mouse assessed as worm burden reduction at 200 mg/kg, po administered as single dose and measured after 17 to 21 days relative to control. Type of data set: functional, organism-based. Further details: scale not given: the % may be the effect or the level left. To be noted: time 17-21 day.

In data set [11] the test system is Schistosoma mansoni. Description: Antischistosomal activity against Schistosoma mansoni Puerto Rican schistosomula assessed as effect on worm phenotype measured after 72 hrs. Type of data set: functional, organism-based.
The test system of data set [12] is Schistosoma mansoni. Description: Antischistosomal activity against Schistosoma mansoni Puerto Rican schistosomula assessed as effect on worm motility measured after 72 hrs. In kind it is functional, organism-based.
Data set [13] relates to Schistosoma mansoni. Description: Antischistosomal activity against Schistosoma mansoni Puerto-Rican incubated for 72 hrs by inverted microscopic method. Type of data set: functional, organism-based.
For data set [14], the system named is Schistosoma mansoni. The data set can be described thus: Antischistosomal activity against Schistosoma mansoni infected in NMRI mouse assessed as worm burden reduction at 400 mg/kg, po administered […] for 4 consecutive days and measured after 14 days relative to control. To be noted: time 14 day. In kind it is functional. Further details: scale not given: the % may be the effect or the level left.

As usually defined, the IC50 is the concentration that inhibits the measured activity by half. Broadly, the IC90 is the concentration at which the effect reaches the 90% level. For orientation: mortality means the share of the test organisms that died. In the case of `CCN(CC)CCCC(C)Nc1c2c3ccccc3nc-2n(C)c2cc(Cl)ccc12` (centres undefined), the IC50 in the data set on Schistosoma mansoni [1] is 29.3 µM; with Schistosoma mansoni [2], 19.3 µM. The IC90 in the data set with Schistosoma mansoni [1] was 32.8 µM; in the data set with Schistosoma mansoni [2] it was 24.3 µM. Besides, the mortality at 5 µg/mL in the data set with Schistosoma mansoni [3] was determined as 100%.

For `O[C@@H](c1cc(-c2ccc(C(F)(F)F)cc2)nc(C(F)(F)F)c1)[C@@H]1CCCCN1`, the Activity in the data set with Schistosoma mansoni [4] is recorded as above 82%.

For orientation: LC50 means the concentration that kills 50% of the test population. With `CN(C)CCNc1c2c3ccccc3nc-2n(C)c2ccc(Cl)cc12`, the mortality in data set [5] worked out at 100%. In [6], the LC50 is 1.47 µM and the LC90 came out at 2.12 µM. Besides, in the data set with Schistosoma mansoni [1], the IC50 was determined as 5.95 µM and the IC90 was 13 µM. Besides, in the data set with Schistosoma mansoni [2], the IC50 worked out at 3.68 µM and the IC90 stood at 7.65 µM. Further, in the data set with Schistosoma mansoni [3], the mortality at 5 µg/mL was 100%.

With `O=C1OC[C@@H](Cc2ccc3c(c2)OCO3)[C@@H]1Cc1ccc2c(c1)OCO2`, the Activity with Schistosoma mansoni [7] is listed as above 75%.

Turning to `CCN1CCCC1CNc1c2c3ccccc3nc-2n(C)c2ccc(Cl)cc12` (centres undefined), the mortality in data set [5] is 100%. In addition, in [6], the LC50 is 2.95 µM and the LC90 was determined as 4.1 µM.

With `CN1CCC(NCc2cccc(-c3ccc(S(=O)(=O)NCc4ccccc4)cc3)c2)CC1`, the results for the IC50 in the data set with Schistosoma mansoni [8] and in the data set with Schistosoma mansoni [9] were 2.6 µM and 3 µM, respectively. The Activity with Schistosoma haematobium is 75.4%; in the data set with Schistosoma mansoni [10], 67.8%.

Consider `CN1CCN(c2c3cc(Cl)ccc3nc3[nH]c4ccccc4c23)CC1`, for which, in [5], the mortality came to 100%. Moreover, in [6], the LC50 was 0.63 µM and the LC90 was determined as 0.91 µM. Besides, in the data set with Schistosoma mansoni [1], the IC50 turned out to be 6.27 µM and the IC90 is 17.9 µM. Also, in the data set on Schistosoma mansoni [2], the IC50 is 5.41 µM and the IC90 came to 13.7 µM. For the same molecule, the mortality at 5 µg/mL with Schistosoma mansoni [3] amounted to 100%.

For the molecule `C=C[C@](C)(O)CCC1[C@](C)(O)CC[C@H]2C(C)(C)CCC[C@]12C` (some centres undefined), the IC50 with Schistosoma mansoni [11] was determined as 14.2 µM; in the data set on Schistosoma mansoni [12], 12.3 µM.

Turning to `CS(=O)(=O)c1ccc(C(=O)N(CC2CCCO2)c2nc3ccccc3s2)cc1[N+](=O)[O-]` (centres undefined), the IC50 came to 0.4 µM in the data set on Schistosoma mansoni [8] and 3.7 µM in the data set with Schistosoma mansoni [9]. In addition, the values for the Activity in the data set with Schistosoma haematobium and in the data set on Schistosoma mansoni [10] were 90.8% and 55.2%, respectively.

In data set [5], `Cn1c2nc3ccccc3c-2c(N2CCC(N3CCCCC3)CC2)c2cc(Cl)ccc21` yielded a mortality of 100%. In [6], this molecule showed an LC50 of 2.6 µM and an LC90 of 3.5 µM. In the data set with Schistosoma mansoni [1], the IC50 stood at 7.85 µM and the IC90 is 13.4 µM. In the data set on Schistosoma mansoni [2], the IC50 was 3.46 µM and the IC90 came out at 8.31 µM. The mortality at 5 µg/mL in the data set with Schistosoma mansoni [3] was found to be 100%.

With `O[C@@H]1OC[C@@H](Cc2ccc3c(c2)OCO3)[C@@H]1Cc1ccc2c(c1)OCO2`, the Activity in the data set with Schistosoma mansoni [7] is above 75%.

For the molecule `CC1(C)CCC[C@]2(C)C(CC[C@@](C)(O)/C=C/c3ccccc3)[C@](C)(O)CC[C@@H]12` (some centres undefined), the IC50 with Schistosoma mansoni [11] and in the data set with Schistosoma mansoni [12] was below 10 µM throughout.

Take `OC(c1cc(-c2ccc(C(F)(F)F)cc2)nc(C(F)(F)F)c1)C1CCCCN1` (centres undefined) [ENPIROLINE]: the Activity in the data set on Schistosoma mansoni [4] is above 82%.

As for `CC1(C)CCC[C@]2(C)C(CC[C@@](C)(O)/C=C/c3cccc(Cl)c3)[C@](C)(O)CC[C@@H]12` (some centres undefined), the IC50 in the data set with Schistosoma mansoni [11] and in the data set on Schistosoma mansoni [12] was below 10 µM throughout.

In the case of `O=C(CCl)NCCOc1ccc(Cl)cc1Cl`, the IC50 was found to be 1.8 µM in the data set on Schistosoma mansoni [8] and 3.4 µM with Schistosoma mansoni [13]. For the same molecule, the Activity in the data set with Schistosoma mansoni [14] is on record as 1.8%.

For the molecule `CC1(C)CCC[C@]2(C)C(CC[C@@](C)(O)/C=C/c3ccc(Cl)cc3)[C@](C)(O)CC[C@@H]12` (some centres undefined), the IC50 in the data set on Schistosoma mansoni [11] and in the data set with Schistosoma mansoni [12] was below 10 µM throughout.

For `Clc1cc(Br)ccc1-c1ccc(CNCC2CCNCC2)o1`, the results for the IC50 in the data set with Schistosoma mansoni [8] and with Schistosoma mansoni [13] were 3.4 µM and 6.3 µM, respectively. For the same molecule, the Activity in the data set with Schistosoma mansoni [14] is 18.7%.

With `COc1ccc(Oc2ccc([C@H](C)N(C)c3ncc4c(N)nc(N)nc4n3)cc2)cc1`, the figures for the IC50 in the data set with Schistosoma mansoni [8] and with Schistosoma mansoni [9] were 16.7 µM and 7.9 µM, respectively. For the same molecule, the Activity with Schistosoma haematobium was 50.9%; in the data set with Schistosoma mansoni [10], 32.8%.

As for `CCN(CC)CCCC(C)Nc1c2c3ccccc3nc-2n(C)c2ccc(Cl)cc12` (centres undefined), in the data set with Schistosoma mansoni [1], the IC50 was determined as 15 µM and the IC90 stood at 21.7 µM. Besides, in the data set on Schistosoma mansoni [2], the IC50 stood at 11.7 µM and the IC90 worked out at 16.8 µM. In addition, in the data set on Schistosoma mansoni [3], the mortality at 5 µg/mL turned out to be 100%.

Take `COc1cc(C[C@@H]2C(=O)OC[C@H]2Cc2ccc3c(c2)OCO3)cc(OC)c1OC`: the Activity in the data set with Schistosoma mansoni [7] is recorded as above 75%.

Consider `Clc1ccc2nc3[nH]c4ccccc4c3c(NCCN3CCOCC3)c2c1`, for which, in the data set with Schistosoma mansoni [1], the IC50 was found to be 7.61 µM and the IC90 turned out to be 11 µM. In addition, in the data set on Schistosoma mansoni [2], the IC50 was 3.41 µM and the IC90 was determined as 6.3 µM. Moreover, in the data set with Schistosoma mansoni [3], the mortality at 5 µg/mL came to 100%.

`COc1ccc(Nc2nc(NCc3ccccc3)c3ccccc3n2)cc1`: the IC50 with Schistosoma mansoni [8] is 2.7 µM; in the data set on Schistosoma mansoni [13], 0.8 µM. Moreover, in the data set with Schistosoma mansoni [14], the Activity was 0%.

In turn, `Cn1c2nc3ccccc3c-2c(N2CCN(CCO)CC2)c2cc(Cl)ccc21` returned a mortality in [5] of 100%. In data set [6], this molecule yielded an LC50 of 3.9 µM and an LC90 of 4.8 µM. In addition, in the data set on Schistosoma mansoni [1], the IC50 worked out at 3.29 µM and the IC90 was 5.57 µM. Moreover, in the data set on Schistosoma mansoni [2], the IC50 was 1.77 µM and the 90% effect concentration (IC90) was 4.55 µM. Also, the mortality at 5 µg/mL with Schistosoma mansoni [3] was found to be 100%.

With `O[C@H](c1cc(-c2ccc(C(F)(F)F)cc2)nc(C(F)(F)F)c1)[C@H]1CCCCN1`, the Activity in the data set with Schistosoma mansoni [4] was above 82%.

In the case of `Cn1c2nc3ccccc3c-2c(NCCN2CCCC2)c2cc(Cl)ccc21`, the mortality in [5] was found to be 100%. Moreover, in data set [6], the LC50 came to 1.74 µM and the LC90 was determined as 2.64 µM.

`O=C(Nc1ccc(Cl)c(Cl)c1)Nc1ccc(Cl)c(Cl)c1` registered an IC50 in the data set with Schistosoma mansoni [8] of 4.7 µM. The Activity in the data set with Schistosoma mansoni [14] was determined as 52.5%.

The molecule `Brc1ccc(Nc2nc3ccccc3nc2Nc2ccc(Br)cc2)cc1` showed an IC50 in the data set with Schistosoma mansoni [13] of 0.8 µM. Further, the Activity with Schistosoma mansoni [14] is recorded as 40.8%.

In data set [5], `Cn1c2nc3ccccc3c-2c(NCCN2CCOCC2)c2cc(Cl)ccc21` yielded a mortality of 100%. In [6], this molecule registered an LC50 of 1.3 µM and an LC90 of 2.2 µM. In the data set with Schistosoma mansoni [1], the IC50 was determined as 3.54 µM and the concentration for an effect of 90% (IC90) turned out to be 6.83 µM. In the data set with Schistosoma mansoni [2], the IC50 is 1.26 µM and the IC90 was 4.05 µM. The mortality at 5 µg/mL in the data set with Schistosoma mansoni [3] came out at 100%.

For the molecule `O=C(Nc1ccc(N2CCNCC2)cc1)c1ccn2ncc(-c3cccc(Cl)c3)c2n1`, the IC50 in the data set with Schistosoma mansoni [8] worked out at 0.6 µM; in the data set with Schistosoma mansoni [9], 2 µM. For the same molecule, the Activity in the data set with Schistosoma haematobium amounted to 100%; with Schistosoma mansoni [10], 70.7%.
